In patent publication US11613527B2, “Enzyme inhibitors” (KalVista Pharmaceuticals Limited, priority 2019, dated 2023):
Values after ≈ are worked out from the molar mass of the structure shown.

What was measured:
Human KLK1 = Human KLK1 (Homo sapiens (Human), UniProt P06870); assay: Determination of the IC50 for KLK1 (fluorogenic substrate H-DVal-Leu-Arg-AFC); type: biochemical
Method in brief: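 Human KLK1 incubated at 25° C. with fluorogenic substrate H-DVal-Leu-Arg-AFC and a range of test compound concentrations. Residual activity taken as initial reaction rate from absorbance change at 410 nm; IC50 derived from these rates.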

[1] = Solubility after 24 hrs in Fasted State Simulated Intestinal Fluid (FaSSIF); type: physicochemical; conditions: Fasted State Simulated Intestinal Fluid (FaSSIF), thermodynamic from solid, 24 hrs at 37° C., nominal concentration 1 mg/mL (as free base)
Method in brief: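 Compound at nominal 1 mg/mL (as free base) in freshly prepared FaSSIF, shaken 24 h at 37 °C, ~500 rpm. After centrifugation at 15,000 g for 10 min at 37 °C, dissolved concentration measured by LCMS.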

Human plasma kallikrein = Human plasma kallikrein (Homo sapiens (Human), UniProt P03952); assay: Determination of the IC50 for plasma kallikrein (fluorogenic substrate H-DPro-Phe-Arg-AFC); type: biochemical; conditions: class symbols A-D, read-out: IC50 (human PKal)
Human plasma kallikrein, sequence (P03952 391-638): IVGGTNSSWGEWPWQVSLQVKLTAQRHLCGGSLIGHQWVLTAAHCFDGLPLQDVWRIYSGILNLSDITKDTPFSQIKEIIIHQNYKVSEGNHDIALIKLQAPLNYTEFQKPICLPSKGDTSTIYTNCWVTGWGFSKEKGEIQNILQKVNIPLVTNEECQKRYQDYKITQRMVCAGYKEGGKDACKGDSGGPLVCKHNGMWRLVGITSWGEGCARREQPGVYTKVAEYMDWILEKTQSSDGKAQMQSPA
Human plasma kallikrein, sequence (P03952 20-390 partner): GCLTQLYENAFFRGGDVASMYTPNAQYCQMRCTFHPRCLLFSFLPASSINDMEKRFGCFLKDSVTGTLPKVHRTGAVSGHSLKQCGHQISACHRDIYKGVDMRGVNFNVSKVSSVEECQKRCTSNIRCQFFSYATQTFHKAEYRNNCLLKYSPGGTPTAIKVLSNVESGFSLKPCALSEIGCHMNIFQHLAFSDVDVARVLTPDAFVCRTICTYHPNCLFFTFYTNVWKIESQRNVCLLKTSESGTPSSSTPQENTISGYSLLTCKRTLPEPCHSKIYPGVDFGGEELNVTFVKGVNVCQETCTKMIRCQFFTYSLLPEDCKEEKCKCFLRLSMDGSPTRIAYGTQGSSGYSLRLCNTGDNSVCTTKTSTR
Method in brief: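 Enzyme from a commercial source was incubated at 25° C. with H-DPro-Phe-Arg-AFC substrate and a range of test compound concentrations. Residual activity was taken as the initial reaction rate, followed by absorbance change at 410 nm, and IC50 values were derived from it.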

[2] = Pharmacokinetics following a single oral dose in male Sprague-Dawley rats; type: in vivo; conditions: rat, nominal 5 mg/kg in 10% DMSO/10% cremophor/80% SWFI, plasma
Experimental: Pharmacokinetic studies of the compounds in Table 14 were performed to assess the pharmacokinetics following a single oral dose in male Sprague-Dawley rats. Two rats were given a single po dose of 5 mL/kg of a nominal 1 mg/mL (5 mg/kg) composition of test compound in 10% DMSO/10% cremophor/80% SWFI vehicle. Following dosing, blood samples were collected over a period of […]. Sample times were 5, 15 and 30 minutes then 1, 2, 4, 6, 8 and 12 hours. Following collection, blood samples were centrifuged and the plasma fraction analysed for concentration of test compound by LCMS.

Human FXIa = Human FXIa (Homo sapiens (Human), UniProt P03951); assay: Determination of the % inhibition for FXIa (fluorogenic substrate Z-Gly-Pro-Arg-AFC; 40 μM or IC50); type: biochemical
Human FXIa, sequence (P03951 388-625): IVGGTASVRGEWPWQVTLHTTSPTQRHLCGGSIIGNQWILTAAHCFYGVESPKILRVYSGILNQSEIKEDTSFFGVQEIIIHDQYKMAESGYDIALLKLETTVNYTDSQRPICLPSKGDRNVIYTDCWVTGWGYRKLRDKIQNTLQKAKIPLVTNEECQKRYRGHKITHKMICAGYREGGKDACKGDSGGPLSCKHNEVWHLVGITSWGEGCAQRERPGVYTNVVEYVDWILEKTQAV
Human FXIa, sequence (P03951 19-387 partner): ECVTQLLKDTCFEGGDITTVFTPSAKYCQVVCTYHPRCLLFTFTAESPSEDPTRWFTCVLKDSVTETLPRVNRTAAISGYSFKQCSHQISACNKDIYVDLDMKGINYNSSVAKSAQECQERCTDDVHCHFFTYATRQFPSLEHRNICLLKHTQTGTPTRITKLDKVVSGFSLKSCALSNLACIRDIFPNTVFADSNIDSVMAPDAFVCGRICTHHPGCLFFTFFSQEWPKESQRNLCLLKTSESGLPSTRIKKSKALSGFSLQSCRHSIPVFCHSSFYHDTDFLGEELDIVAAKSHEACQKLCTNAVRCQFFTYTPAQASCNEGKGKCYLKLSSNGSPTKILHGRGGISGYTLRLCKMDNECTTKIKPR
Method in brief: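 Human FXIa incubated at 25 °C with fluorogenic substrate Z-Gly-Pro-Arg-AFC and test compound at 40 μM for % inhibition, or a concentration series for IC50. Residual activity taken as initial rate from absorbance change at 410 nm.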

Human KLK1, sequence (P06870 25-262): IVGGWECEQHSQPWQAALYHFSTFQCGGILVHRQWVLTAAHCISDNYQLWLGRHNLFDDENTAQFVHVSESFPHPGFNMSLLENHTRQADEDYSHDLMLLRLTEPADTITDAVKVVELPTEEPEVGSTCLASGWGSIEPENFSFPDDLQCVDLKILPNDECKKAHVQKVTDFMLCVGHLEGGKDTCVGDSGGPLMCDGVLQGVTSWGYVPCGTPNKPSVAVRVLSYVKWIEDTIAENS

Row | IC50 (Human KLK1) | solubility at 24 h [1] | IC50 (Human plasma kallikrein) | Cmax [2] | IC50 (Human FXIa) | Compound
1 | > 40 µM | 710 µg/mL (≈ 1330 µM) | < 0.01 µM | 134 ng/mL | > 40 µM | COCc1nn(Cc2ccc3c(c2)CN(C)CC3)cc1C(=O)NCc1c(-n2cc(C)nn2)ccc(OC)c1F [Example 2, N-{[2-Fluoro-3-methoxy-6-(4-methyl-1,2,3-triazol-1-yl)phenyl]methyl}-3-(methoxymethyl)-1-[(2-methyl-3,4-dihydro-1H-isoquinolin-7-yl)methyl]pyrazole-4-carboxamide]
2 | > 40 µM | > 1000 µg/mL | < 0.01 µM | 38 ng/mL | > 40 µM | COCc1nn(Cc2ccc3c(c2)CCN(C(C)C)C3)cc1C(=O)NCc1c(-n2cc(C)nn2)ccc(OC)c1F [Example 37, N-{[2-fluoro-3-methoxy-6-(4-methyl-1,2,3-triazol-1-yl)phenyl]methyl}-1-[(2-isopropyl-3,4-dihydro-1H-isoquinolin-6-yl)methyl]-3-(methoxymethyl)pyrazole-4-carboxamide]
3 | > 40 µM | 870 µg/mL (≈ 1460 µM) | < 0.01 µM | 20 ng/mL | > 40 µM | COCc1nn(Cc2ccc3c(c2)CN(C(C)C)CC3)cc1C(=O)NCc1c(-n2cnc(C(F)F)n2)ccc(OC)c1F [Example 23, N-({6-[3-(difluoromethyl)-1,2,4-triazol-1-yl]-2-fluoro-3-methoxyphenyl}methyl)-1-[(2-isopropyl-3,4-dihydro-1H-isoquinolin-7-yl)methyl]-3-(methoxymethyl)pyrazole-4-carboxamide]
4 | > 40 µM | > 1000 µg/mL | < 0.01 µM | 34 ng/mL | > 40 µM | COCc1nn(Cc2ccc3c(c2)CCN(C(C)C)C3)cc1C(=O)NCc1c(-n2ccc(C#N)n2)ccc(OC)c1F [Example 46, N-{[6-(3-cyanopyrazol-1-yl)-2-fluoro-3-methoxyphenyl]methyl}-1-[(2-isopropyl-3,4-dihydro-1H-isoquinolin-6-yl)methyl]-3-(methoxymethyl)pyrazole-4-carboxamide]
5 | > 40 µM | > 1000 µg/mL | < 0.01 µM | 78 ng/mL | > 40 µM | COCc1nn(Cc2ccc3c(c2)CN(C)CC3)cc1C(=O)NCc1c(-n2cnc(C(F)F)n2)ccc(OC)c1F [Example 15, N-({6-[3-(difluoromethyl)-1,2,4-triazol-1-yl]-2-fluoro-3-methoxyphenyl}methyl)-3-(methoxymethyl)-1-[(2-methyl-3,4-dihydro-1H-isoquinolin-7-yl)methyl]pyrazole-4-carboxamide]
6 | > 40 µM | 730 µg/mL (≈ 1280 µM) | < 0.01 µM | 24 ng/mL | 23.8 µM | COCc1nn(Cc2ccc3c(c2)CN(C(C)C)CC3)cc1C(=O)NCc1c(-n2ccc(C#N)n2)ccc(OC)c1F [Example 24, N-{[6-(3-cyanopyrazol-1-yl)-2-fluoro-3-methoxyphenyl]methyl}-1-[(2-isopropyl-3,4-dihydro-1H-isoquinolin-7-yl)methyl]-3-(methoxymethyl)pyrazole-4-carboxamide]
7 | > 40 µM | 860 µg/mL (≈ 1460 µM) | < 0.01 µM | 88 ng/mL | > 40 µM | COCc1nn(Cc2ccc3c(c2)CN(C)CC3)cc1C(=O)NCc1c(-n2cnc(C(F)(F)F)n2)ccc(OC)c1F [Example 13, N-({2-fluoro-3-methoxy-6-[3-(trifluoromethyl)-1,2,4-triazol-1-yl]phenyl}methyl)-3-(methoxymethyl)-1-[(2-methyl-3,4-dihydro-1H-isoquinolin-7-yl)methyl]pyrazole-4-carboxamide]
